Reference: patent US10004701B2, “Methods and compositions for treating infection” (UNIVERSITY OF ROCHESTER, priority 2012, dated 2018)
Where a name gives a salt, the structure may show the parent alone. Read-outs that look alike come from different tables or passages of the source.

Assays:
Test in all cases: AK assay 384-well format, Prestwick library screening
[1] = tested on: E. cloacae; assay type: cell-based, Enterobacter cloacae; settings: 50 μM final drug concentration; for fold induction at 50 µM: Enterobacter cloacae, 3 h
[2] = tested on: P. aeruginosa; assay type: cell-based, Pseudomonas aeruginosa; settings: 50 μM final drug concentration; for fold induction at 50 µM: Pseudomonas aeruginosa, 3 h
[3] = tested on: E. faecium; assay type: cell-based, Enterococcus faecium; settings: 50 μM final drug concentration; for fold induction at 50 µM: Enterococcus faecium, 3 h
[4] = tested on: S. aureus strain USA300-0114; assay type: cell-based, Staphylococcus aureus; settings: 50 μM final drug concentration; for fold induction at 50 µM: Staphylococcus aureus, USA300, 3 h
[5] = tested on: A. baumannii strain 98-37-09; assay type: cell-based, Acinetobacter baumannii; settings: 50 μM final drug concentration; for fold induction at 50 µM: Acinetobacter baumannii, 983709, 3 h
[6] = tested on: E. coli; assay type: cell-based, Escherichia coli; settings: 50 μM final drug concentration; for fold induction at 50 µM: Escherichia coli, 3 h
[7] = tested on: K. pneumoniae; assay type: cell-based, Klebsiella pneumoniae; settings: 50 μM final drug concentration; for fold induction at 50 µM: Klebsiella pneumoniae, 3 h
[8] = planktonic, cutoff for positive 3-fold increase
[9] = cutoff for positive-scoring molecules 3-fold increase, read-out: AK-based Prestwick Library Screening Results, E. cloacae (fold increase in extracellular AK activity)
[10] = cutoff for positive-scoring molecules 3-fold increase, read-out: AK-based Prestwick Library Screening Results, P. aeruginosa (fold increase in extracellular AK activity)
[11] = cutoff for positive-scoring molecules 3-fold increase, read-out: AK-based Prestwick Library Screening Results, E. faecium (fold increase in extracellular AK activity)
[12] = cutoff for positive-scoring molecules 3-fold increase, read-out: AK-based Prestwick Library Screening Results, S. aureus (fold increase in extracellular AK activity)
[13] = cutoff for positive-scoring molecules 3-fold increase, read-out: AK-based Prestwick Library Screening Results, A. baumannii (fold increase in extracellular AK activity)
[14] = cutoff for positive-scoring molecules 3-fold increase, read-out: AK-based Prestwick Library Screening Results, E. coli (fold increase in extracellular AK activity)
[15] = cutoff for positive-scoring molecules 3-fold increase, read-out: AK-based Prestwick Library Screening Results, K. pneumoniae (fold increase in extracellular AK activity)
[16] = 384-well format, cutoff for positive-scoring molecules 3-fold increase

In the case of C[N+]1(C)CCC[C@H]1C(=O)[O-].Cl [Stachydrine hydrochloride], the “AK-based Prestwick Library Screening Results, E. cloacae (fold increase in extracellular AK activity)” value [1, 8] is reported as 1.5, the “AK-based Prestwick Library Screening Results, P. aeruginosa (fold increase in extracellular AK activity)” value [2, 8] is reported as 1.2 and the “AK-based Prestwick Library Screening Results, E. faecium (fold increase in extracellular AK activity)” value [3, 8] is reported as 1.0. For the same molecule, the “AK-based Prestwick Library Screening Results, S. aureus (fold increase in extracellular AK activity)” value [4, 8] was 1.0, the “AK-based Prestwick Library Screening Results, A. baumannii (fold increase in extracellular AK activity)” value [5, 8] was 1.4 and the “AK-based Prestwick Library Screening Results, E. coli (fold increase in extracellular AK activity)” value [6, 8] was 1.4. For the same molecule, the “AK-based Prestwick Library Screening Results, K. pneumoniae (fold increase in extracellular AK activity)” value [7, 8] was 1.1.

In the case of [H]/N=C(/N)N[C@H]1[C@H](O)[C@@H](O)[C@H](O[C@@H]2O[C@@H](C)[C@](O)(C=O)[C@H]2O[C@@H]2O[C@@H](CO)[C@H](O)[C@@H](O)[C@@H]2NC)[C@@H](N/C(N)=N\[H])[C@@H]1O [Streptomycin sulfate], the fold induction at 50 µM ([1]; planktonic E. cloacae, 384-well, cutoff for positive-scoring molecules 3-fold increase, read-out: AK-based Prestwick Library Screening Results: E. cloacae (increase in extracellular AK activity)) is reported as 0.3, the fold induction at 50 µM ([2]; planktonic P. aeruginosa, 384-well, cutoff for positive-scoring molecules 3-fold increase, read-out: AK-based Prestwick Library Screening Results: P. aeruginosa (increase in extracellular AK activity)) is reported as 0.4 and the fold induction at 50 µM ([3]; planktonic E. faecium, 384-well, cutoff for positive-scoring molecules 3-fold increase, read-out: AK-based Prestwick Library Screening Results: E. faecium (increase in extracellular AK activity)) is reported as 0.9. It also gave a fold induction at 50 µM ([4]; planktonic S. aureus, 384-well, cutoff for positive-scoring molecules 3-fold increase, read-out: AK-based Prestwick Library Screening Results: S. aureus (increase in extracellular AK activity)) of 0.4, a fold induction at 50 µM ([5]; planktonic A. baumannii, 384-well, cutoff for positive-scoring molecules 3-fold increase, read-out: AK-based Prestwick Library Screening Results: A. baumannii (increase in extracellular AK activity)) of 0.4 and a fold induction at 50 µM ([6]; planktonic E. coli, 384-well, cutoff for positive-scoring molecules 3-fold increase, read-out: AK-based Prestwick Library Screening Results: E. coli (increase in extracellular AK activity)) of 0.5. It also gave a fold induction at 50 µM ([7]; planktonic K. pneumoniae, 384-well, cutoff for positive-scoring molecules 3-fold increase, read-out: AK-based Prestwick Library Screening Results: K. pneumoniae (increase in extracellular AK activity)) of 0.3.

Work on C[C@]12CC[C@H]3[C@@H](CC[C@]4(O)C[C@@H](O)CC[C@]34C=O)[C@@]1(O)CC[C@@H]2C1=CC(=O)OC1 [Strophanthidin] yielded a fold induction at 50 µM ([1]; […], read-out: AK-based Prestwick Library Screening Results, E. cloacae (fold increase in extracellular AK activity)) of 1.3, a fold induction at 50 µM ([2]; […], read-out: AK-based Prestwick Library Screening Results, P. aeruginosa (fold increase in extracellular AK activity)) of 1.1 and a fold induction at 50 µM ([3]; […], read-out: AK-based Prestwick Library Screening Results, E. faecium (fold increase in extracellular AK activity)) of 1. For the same molecule, the fold induction at 50 µM ([4]; […], read-out: AK-based Prestwick Library Screening Results, S. aureus (fold increase in extracellular AK activity)) was 1.3, the fold induction at 50 µM ([5]; […], read-out: AK-based Prestwick Library Screening Results, A. baumannii (fold increase in extracellular AK activity)) was 1.3 and the fold induction at 50 µM ([6]; […], read-out: AK-based Prestwick Library Screening Results, E. coli (fold increase in extracellular AK activity)) was 1.4. For the same molecule, the fold induction at 50 µM ([7]; […], read-out: AK-based Prestwick Library Screening Results, K. pneumoniae (fold increase in extracellular AK activity)) was 1.1.

In the case of C[C@@H]1O[C@@H](O[C@H]2C[C@@H](O)[C@]3(CO)[C@H]4[C@H](O)C[C@]5(C)[C@@H](C6=CC(=O)OC6)CC[C@]5(O)[C@@H]4CC[C@]3(O)C2)[C@H](O)[C@H](O)[C@H]1O.O.O.O.O.O.O.O.O [Strophantine octahydrate], the “AK-based Prestwick Library Screening Results, E. cloacae (fold increase in extracellular AK activity)” value ([1]; planktonic, […]) is reported as 1.7, the “AK-based Prestwick Library Screening Results, P. aeruginosa (fold increase in extracellular AK activity)” value ([2]; planktonic, […]) is reported as 1.1 and the “AK-based Prestwick Library Screening Results, E. faecium (fold increase in extracellular AK activity)” value ([3]; planktonic, […]) is reported as 1.0. The “AK-based Prestwick Library Screening Results, S. aureus (fold increase in extracellular AK activity)” value ([4]; planktonic, […]) was 1.1, the “AK-based Prestwick Library Screening Results, A. baumannii (fold increase in extracellular AK activity)” value ([5]; planktonic, […]) was 1.2 and the “AK-based Prestwick Library Screening Results, E. coli (fold increase in extracellular AK activity)” value ([6]; planktonic, […]) was 1.2. The “AK-based Prestwick Library Screening Results, K. pneumoniae (fold increase in extracellular AK activity)” value ([7]; planktonic, […]) was 0.9.

Work on O=C(O)CCC(=O)Nc1ccc(S(=O)(=O)Nc2nccs2)cc1 [Succinylsulfathiazole] yielded a fold induction at 50 µM [1, 9] of 1.4, a fold induction at 50 µM [2, 10] of 1.1 and a fold induction at 50 µM [3, 11] of 1. For the same molecule, the fold induction at 50 µM [4, 12] was 1.3, the fold induction at 50 µM [5, 13] was 1.3 and the fold induction at 50 µM [6, 14] was 1.4. The fold induction at 50 µM [7, 15] was 1.1.

Molecule Nc1ccc(S(=O)(=O)NC(=O)c2ccccc2)cc1 [Sulfabenzamide] has a fold induction at 50 µM [1, 9] of 1.6, a fold induction at 50 µM [2, 10] of 1.1 and a fold induction at 50 µM [3, 11] of 1.1. The fold induction at 50 µM [4, 12] was 1.2, the fold induction at 50 µM [5, 13] was 2.8 and the fold induction at 50 µM [6, 14] was 1.1. The fold induction at 50 µM [7, 15] was 1.1.

With CC(=O)[N-]S(=O)(=O)c1ccc(N)cc1.O.[Na+] [Sulfacetamide sodic hydrate] the “AK-based Prestwick Library Screening Results, E. cloacae (increase in extracellular AK activity)” value [1, 16] was 0.7, the “AK-based Prestwick Library Screening Results, P. aeruginosa (increase in extracellular AK activity)” value [2, 16] was 0.5 and the “AK-based Prestwick Library Screening Results, E. faecium (increase in extracellular AK activity)” value [3, 16] was 0.9. For the same molecule, the “AK-based Prestwick Library Screening Results, S. aureus (increase in extracellular AK activity)” value [4, 16] was 0.7, the “AK-based Prestwick Library Screening Results, A. baumannii (increase in extracellular AK activity)” value [5, 16] was 2.2 and the “AK-based Prestwick Library Screening Results, E. coli (increase in extracellular AK activity)” value [6, 16] was 0.6. For the same molecule, the “AK-based Prestwick Library Screening Results, K. pneumoniae (increase in extracellular AK activity)” value [7, 16] was 0.5.

With Nc1ccc(S(=O)(=O)Nc2ccc(Cl)nn2)cc1 [Sulfachloropyridazine] the fold induction at 50 µM [1, 9] was 1.5, the fold induction at 50 µM [2, 10] was 1 and the fold induction at 50 µM [3, 11] was 1. For the same molecule, the fold induction at 50 µM [4, 12] was 1.1, the fold induction at 50 µM [5, 13] was 2.1 and the fold induction at 50 µM [6, 14] was 1. For the same molecule, the fold induction at 50 µM [7, 15] was 1.1.

Nc1ccc(S(=O)(=O)Nc2ncccn2)cc1 [Sulfadiazine] showed a fold induction at 50 µM ([1]; 384-well format, cutoff for positive-scoring molecules 3-fold increase, read-out: AK-based Prestwick Library Screening Results, E. cloacae (increase in extracellular AK activity)) of 0.9, a fold induction at 50 µM ([2]; 384-well format, cutoff for positive-scoring molecules 3-fold increase, read-out: AK-based Prestwick Library Screening Results, P. aeruginosa (increase in extracellular AK activity)) of 0.8 and a fold induction at 50 µM ([3]; 384-well format, cutoff for positive-scoring molecules 3-fold increase, read-out: AK-based Prestwick Library Screening Results, E. faecium (increase in extracellular AK activity)) of 0.8. For the same molecule, the fold induction at 50 µM ([4]; 384-well format, cutoff for positive-scoring molecules 3-fold increase, read-out: AK-based Prestwick Library Screening Results, S. aureus (increase in extracellular AK activity)) was 0.7, the fold induction at 50 µM ([5]; 384-well format, cutoff for positive-scoring molecules 3-fold increase, read-out: AK-based Prestwick Library Screening Results, A. baumannii (increase in extracellular AK activity)) was 1.2 and the fold induction at 50 µM ([6]; 384-well format, cutoff for positive-scoring molecules 3-fold increase, read-out: AK-based Prestwick Library Screening Results, E. coli (increase in extracellular AK activity)) was 1. The fold induction at 50 µM ([7]; 384-well format, cutoff for positive-scoring molecules 3-fold increase, read-out: AK-based Prestwick Library Screening Results, K. pneumoniae (increase in extracellular AK activity)) was 0.7.

With COc1cc(NS(=O)(=O)c2ccc(N)cc2)nc(OC)n1 [Sulfadimethoxine] the fold induction at 50 µM ([1]; planktonic, cutoff for positive-scoring molecules 3-fold increase, read-out: AK-based Prestwick Library Screening Results, E. cloacae (fold increase in extracellular AK activity)) was 0.4, the fold induction at 50 µM ([2]; planktonic, cutoff for positive-scoring molecules 3-fold increase, read-out: AK-based Prestwick Library Screening Results, P. aeruginosa (fold increase in extracellular AK activity)) was 0.4 and the fold induction at 50 µM ([3]; planktonic, cutoff for positive-scoring molecules 3-fold increase, read-out: AK-based Prestwick Library Screening Results, E. faecium (fold increase in extracellular AK activity)) was 0.9. It also gave a fold induction at 50 µM ([4]; planktonic, cutoff for positive-scoring molecules 3-fold increase, read-out: AK-based Prestwick Library Screening Results, S. aureus (fold increase in extracellular AK activity)) of 0.5, a fold induction at 50 µM ([5]; planktonic, cutoff for positive-scoring molecules 3-fold increase, read-out: AK-based Prestwick Library Screening Results, A. baumannii (fold increase in extracellular AK activity)) of 0.9 and a fold induction at 50 µM ([6]; planktonic, cutoff for positive-scoring molecules 3-fold increase, read-out: AK-based Prestwick Library Screening Results, E. coli (fold increase in extracellular AK activity)) of 0.6. The fold induction at 50 µM ([7]; planktonic, cutoff for positive-scoring molecules 3-fold increase, read-out: AK-based Prestwick Library Screening Results, K. pneumoniae (fold increase in extracellular AK activity)) was 0.5.
